Peptide text beside a SMILES is read from it.
Target: T1, Tyrosinase (Homo sapiens) (UniProt P14679)
T1 sequence (whole entry): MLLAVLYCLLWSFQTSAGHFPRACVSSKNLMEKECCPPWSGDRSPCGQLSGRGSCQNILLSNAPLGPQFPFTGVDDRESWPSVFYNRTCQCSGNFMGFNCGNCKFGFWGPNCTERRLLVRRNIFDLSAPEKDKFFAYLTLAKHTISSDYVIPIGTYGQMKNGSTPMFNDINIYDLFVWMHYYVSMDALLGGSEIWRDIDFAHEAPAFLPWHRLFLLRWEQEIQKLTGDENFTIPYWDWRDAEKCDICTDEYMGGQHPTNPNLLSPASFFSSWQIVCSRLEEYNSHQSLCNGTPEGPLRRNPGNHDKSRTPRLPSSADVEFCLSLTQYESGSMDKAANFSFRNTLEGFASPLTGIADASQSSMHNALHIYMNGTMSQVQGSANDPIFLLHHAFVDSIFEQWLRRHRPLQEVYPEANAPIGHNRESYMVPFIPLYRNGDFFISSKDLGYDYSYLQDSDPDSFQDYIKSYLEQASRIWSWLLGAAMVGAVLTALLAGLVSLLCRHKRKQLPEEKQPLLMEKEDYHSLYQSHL
Test: Inhibition of tyrosinase at 800 uM by dopachrome method

inhibition: 15%
Compound: CC(C)C[C@@H]1NC(=O)[C@@H]2CCCN2C(=O)[C@H]([C@@H](C)O)NC(=O)[C@@H]2CCCN2C(=O)[C@H]([C@@H](C)O)NC(=O)CNC(=O)[C@H](Cc2ccccc2)NC(=O)[C@H](Cc2ccccc2)NC1=O (cyclo(FFGTPTPL))

— ChEMBL document CHEMBL1159263, “Cyclic peptides from higher plants, Part 15. Pseudostellarin H, a new cyclic octapeptide from Pseudostellaria heterophylla” (J Nat Prod, 1995)
